Calls of active or inactive are those of the source.
Columns and labels:
[1] = NIH3T3 cell viability loss – ATP luminescence, mouse fibroblasts, counter-screen, dose response (AID 2010); type: functional, cell-based;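 note: cells exposed to compound for about 90 hours before reading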
[2] = alpha-synuclein stem-loop luciferase translation blockers – H4 neuroglioma cells, luminescence, confirmation (AID 1988); type: functional, cell-based
INS1 = assay: INS-1E survival protection against cytokine death – cell-based, luminescence, retest, dose response (AID 449756); type: functional; settings: Rattus norvegicus;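 note: cell death triggered by IL-1 beta plus TNF-alpha plus IFN-gamma mixture; protective hits raise ATP signal compared with cytokine alone wells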
[3] = A Cell Based Secondary Assay to Explore Cytotoxicity in HepG2 Cells of Compounds that Modulate Mycobacterium tuberculosis in Media Containing Glycerol versus Media without Glycerol (2).; type: functional
Streptococcus = assay: GAS UMAA2166 growth inhibition – luminescence, BacTiterGlo, counter-screen for streptokinase expression inhibitor project, dose response (AID 1915); type: functional, organism-based;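 note: potency for reduction of bacterial viability or growth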
[4] = test system: Streptococcus sp. 'group A'; assay: Streptococcus pyogenes SK(-)GAS viability under kanamycin – luminescence, BacTiterGlo, confirmation, counter-screen for streptokinase expression inhibitor project, dose response (AID 1900); type: functional, organism-based
[5] = Trypanosoma cruzi growth suppression in host cells – NIH3T3 host cells, beta-gal luminescence, confirmation (AID 2044); type: functional, cell-based;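 note: intracellular parasites grown in NIH/3T3 mouse fibroblasts as host cells; luminescent beta-galactosidase reporter signal from transgenic T. cruzi replicating inside host cells; inhibitors lower the luminescence signal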
[6] = Vero E6 cell cytotoxicity, dose response, cytotoxicity control for non-replicating M. tuberculosis project, secondary assay (AID 492998); type: functional, VeroE6; settings: Vero C1008
[7] = Vero cell cytotoxicity, dose response, cytotoxicity control for M. tuberculosis growth inhibitor project, Vero cells, purified and synthesized compounds, set 4 (AID 504854); type: functional; settings: Mycobacterium tuberculosis
cells = type: functional
[8] = Luminescence Cell-Based Dose Response HTS to Identify Inhibitors of 5'UTR Stem-Loop Driven Prion Protein mRNA Translation in H4 Neuroglioblastoma Cells. [Related pubchem assays: 1827 (Project Summary), 1813 (Primary HTS)]; type: functional
[9] = microbe, parasite or virus in culture; type: functional; settings: Mycobacterium tuberculosis
[10] = Vero cell cytotoxicity, cytotoxicity control for M. tuberculosis inhibitor project, purified and synthesized samples, set 3 (AID 504684); type: functional
[11] = THP-1 cell cytotoxicity, cytotoxicity control, set 4 (AID 504911); type: functional; settings: Mycobacterium tuberculosis
[12] = HepG2 cell cytotoxicity, dose response, cytotoxicity control, set 3 (AID 504853); type: functional; settings: Mycobacterium tuberculosis
[13] = luciferase reporter signal suppression in cells – H4 neuroglioma cells, luminescence, dose response (AID 1990); type: functional, cell-based
[14] = A Cell Based Secondary Assay to Explore Cytotoxicity in THP-1 Cells of Compounds that Modulate Mycobacterium tuberculosis in Media Containing Glycerol versus Media without Glycerol (2).; type: functional
[15] = HepG2 cell cytotoxicity, cytotoxicity control, set 4 (AID 504910); type: functional; settings: Mycobacterium tuberculosis
[16] = HepG2 cell cytotoxicity, dose response, cytotoxicity control for non-replicating M. tuberculosis project (AID 489018); type: functional; settings: Mycobacterium tuberculosis
Streptokinase A = biological target: T1, Streptokinase A (Streptococcus pyogenes serotype M1, UniProt P10520); assay: viability-normalized secreted streptokinase activity reduction – plasminogen activation absorbance, OD405, dose response (AID 1914); type: functional, Streptococcus pyogenes M1 GAS;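 note: secreted streptokinase activity via plasminogen activation per viability signal from cell pellet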
T1 sequence (P10520 whole entry): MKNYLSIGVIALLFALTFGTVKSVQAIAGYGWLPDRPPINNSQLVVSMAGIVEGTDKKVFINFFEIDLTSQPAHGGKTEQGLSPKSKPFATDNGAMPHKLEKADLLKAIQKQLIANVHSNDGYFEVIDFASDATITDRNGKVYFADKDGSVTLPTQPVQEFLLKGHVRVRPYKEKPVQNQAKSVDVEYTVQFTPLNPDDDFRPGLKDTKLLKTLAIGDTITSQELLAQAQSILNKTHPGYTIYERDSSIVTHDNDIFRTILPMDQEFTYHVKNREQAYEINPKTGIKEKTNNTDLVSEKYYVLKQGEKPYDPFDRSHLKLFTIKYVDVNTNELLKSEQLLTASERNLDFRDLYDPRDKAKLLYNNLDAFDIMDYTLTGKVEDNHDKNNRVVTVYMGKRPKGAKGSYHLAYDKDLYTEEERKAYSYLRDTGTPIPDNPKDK

[17] = THP-1 cell cytotoxicity, dose response, cytotoxicity control for non-replicating M. tuberculosis project (AID 489025); type: functional
[18] = Vero cell cytotoxicity, dose response, cytotoxicity control for M. tuberculosis growth inhibitor project, Vero cells, purified and synthesized compounds, set 5 (AID 504909); type: functional; settings: Mycobacterium tuberculosis
[19] = THP-1 cell cytotoxicity, dose response, cytotoxicity control, set 3 (AID 504852); type: functional; settings: Mycobacterium tuberculosis
[20] = biological target: T2, High affinity choline transporter 1 (Homo sapiens, UniProt Q9GZV3); assay: human choline transporter blockers, potency – cell-based, 5-point CRC, membrane potential dye, dose response (AID 504840); type: functional
T2 sequence (Q9GZV3 whole entry): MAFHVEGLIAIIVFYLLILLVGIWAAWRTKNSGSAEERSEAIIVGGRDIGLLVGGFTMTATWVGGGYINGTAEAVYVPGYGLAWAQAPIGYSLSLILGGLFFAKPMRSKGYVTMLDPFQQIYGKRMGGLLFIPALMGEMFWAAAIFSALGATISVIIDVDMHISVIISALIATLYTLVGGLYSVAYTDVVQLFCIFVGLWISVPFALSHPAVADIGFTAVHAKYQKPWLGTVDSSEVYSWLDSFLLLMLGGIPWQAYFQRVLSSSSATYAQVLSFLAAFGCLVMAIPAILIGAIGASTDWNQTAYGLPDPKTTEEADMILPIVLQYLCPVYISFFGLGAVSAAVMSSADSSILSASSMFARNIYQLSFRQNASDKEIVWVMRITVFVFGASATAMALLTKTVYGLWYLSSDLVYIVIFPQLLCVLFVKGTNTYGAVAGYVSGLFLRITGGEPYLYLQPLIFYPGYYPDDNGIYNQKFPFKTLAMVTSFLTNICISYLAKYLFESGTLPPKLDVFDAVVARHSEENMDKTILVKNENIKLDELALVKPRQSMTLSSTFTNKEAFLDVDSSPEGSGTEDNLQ

[21] = biological target: T2, High affinity choline transporter 1; assay: human choline transporter blockers, potency – cell-based, 10-point CRC, membrane potential dye, dose response (AID 588401); type: functional;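 note: membrane potential dye fluorescence of choline-evoked depolarization via CHT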

Compound: c1ccc(N=C2N=C(Nc3ccccn3)c3ccccc32)nc1
- EC50 [1]: 17.7 µM (active)
- EC50 [2]: 13.4 µM (active)
- AC50 (INS1): 0.795 µM (active)
- CC50 [3]: < 0.1 µM (active)
- EC50 (Streptococcus): > 150 µM (not active)
- EC50 [4]: 5.41 µM (active)
- EC50 [5]: 0.687 µM (active)
- CC50 [6]: 0.5 µM (active)
- CC50 [7]: > 100 µM (active)
- IC50 (cells): < 0.1 µM (active)
- EC50 [8]: > 120 µM (not active)
- CC50 [9]: > 40 µM (active)
- CC50 [10]: < 0.2 µM (active)
- CC50 [11]: > 76.9 µM (active)
- CC50 [12]: 21.2 µM (active)
- EC50 [13]: 10.5 µM (active)
- CC50 [14]: < 0.2 µM (active)
- CC50 [15]: > 41.3 µM (active)
- CC50 [16]: < 0.039 µM (active)
- EC50 (Streptokinase A): 22.2 µM (active)
- CC50 [17]: 0.148 µM (active)
- CC50 [18]: 60.5 µM (active)
- CC50 [19]: > 71.4 µM (active)

Compound: Cc1ccc[n+](CC(=O)c2ccc(Br)cc2)c1
- IC50 [20]: 0.0775 µM (inconclusive)
- IC50 [21]: 0.713 µM (active)

From ChEMBL document CHEMBL1201862, “PubChem BioAssay data set” (2004)
